{"source": "patent US20020115642A1", "about": "“Beta-lactam antibiotics” (priority 2000, published 2002)", "key": {"[1]": {"test_system": "E. cloacae", "experiment": "Susceptibility testing (MIC, modified NCCLS method)", "assay_type": "cell-based, Enterobacter cloacae", "settings": "E. cloacae (1)", "summary_of_the_method": "(§1)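 Growth inhibition was scored by optical density increase at 600 nm. Bacteria in broth were added at roughly 1-1.5×10^6 cells/ml to 20 twofold serial dilutions of compound, prepared from water or DMSO stocks. The NCCLS MIC procedure was modified for high throughput.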"}, "[2]": {"test_system": "E. aerogenes", "experiment": "Susceptibility testing (MIC, modified NCCLS method)", "assay_type": "cell-based, Enterobacter aerogenes", "settings": "E. aerogenes (5)", "summary_of_the_method": "as §1"}, "[3]": {"test_system": "P. aeruginosa", "experiment": "Susceptibility testing (MIC, modified NCCLS method)", "assay_type": "cell-based, Pseudomonas aeruginosa", "summary_of_the_method": "as §1"}, "[4]": {"test_system": "E. faecium", "experiment": "Susceptibility testing (MIC, modified NCCLS method)", "assay_type": "cell-based, Enterococcus faecium", "settings": "Enterococcus faecium; E. faecium (6); read-out: GM* MIC (geometric mean)", "description": "(§2) The NCCLS (National Committee for Clinical Laboratory Standards) method to determine MIC's of antimicrobial compounds was modified for high-throughput screening. All stocks of tested compounds were prepared in either water or in dimethylsulfoxide (DMSO), depending on the solubility. […] Briefly 20 2-fold serial dilutions of testing compounds from the highest concentration were made in a 384-well microtiter plate. Each well was inoculated with testing bacteria in broth to a final concentration of approximately 1-1.5×10^6 cells/ml. Bacterial growth was determined by the increase of optical density at 600 nm using a microplate reader (Tecan SpectraFluor Plus)."}, "[5]": {"test_system": "Vancomycin-resistant E. faecalis or E. faecium", "experiment": "Susceptibility testing (MIC, modified NCCLS method)", "assay_type": "cell-based, Enterococcus faecalis, Enterococcus faecium", "settings": "VRE (5)", "description": "as §2"}, "[6]": {"test_system": "M. catarrhalis", "experiment": "Susceptibility testing (MIC, modified NCCLS method)", "assay_type": "cell-based, Moraxella catarrhalis", "settings": "M. catarrhalis (4)", "description": "as §2"}, "[7]": {"test_system": "H. influenzae", "experiment": "Susceptibility testing (MIC, modified NCCLS method)", "assay_type": "cell-based, Haemophilus influenzae", "settings": "H. influenzae (4)", "description": "as §2"}, "[8]": {"test_system": "Gram-negative species", "experiment": "MIC comparison with reference antibiotics, Gram-negative species", "assay_type": "cell-based", "description": "as §2"}, "[9]": {"test_system": "S. aureus clinical isolates", "experiment": "MIC by agar dilution, recent clinical isolates (UCSD Medical Center)", "assay_type": "cell-based, Staphylococcus aureus", "settings": "MSSA (14)", "description": "Growth of all 14 isolates of MSSA was inhibited by Compound (9) at the lowest tested concentration (0.08 μg/ml) (See Table 6, below)."}, "[10]": {"target": "T1, TEM-1 β-lactamase (Escherichia coli, UniProt P62593)", "T1 construct": "His tag (N); made in house; host or cells: Escherichia coli BL21(DE3)", "T1 sequence (P62593 24-286 limits assumed)": "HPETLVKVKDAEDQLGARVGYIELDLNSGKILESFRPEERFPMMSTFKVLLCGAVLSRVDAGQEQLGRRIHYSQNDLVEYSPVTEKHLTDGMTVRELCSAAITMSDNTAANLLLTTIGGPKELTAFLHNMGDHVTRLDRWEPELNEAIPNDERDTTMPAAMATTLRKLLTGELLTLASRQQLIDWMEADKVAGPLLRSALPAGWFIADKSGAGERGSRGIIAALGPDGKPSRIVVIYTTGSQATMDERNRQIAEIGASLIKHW", "assay_type": "biochemical", "settings": "20 minutes, […] TEM-1, 4 μM solution of Compound (9)", "protocol": "Assays were conducted at 37° C. in 100 mM potassium phosphate buffer pH 7.2 with 1 mM EDTA and 0.5 μg/ml TEM-1 β-lactamase. […] Hydrolysis product (triclosan) was separated from Compound (9) by use of an HP1100 series HPLC equipped with an Alltech Adsorbosphere HS(C18)5u 150 mm×4.6 mm column. The mobile phase was isocratic containing 55% acetonitrile and 0.1% TFA producing retention times of 20.4 minutes and 24.1 minutes for triclosan and Compound (9), respectively. Quantitation of triclosan was based on the A260 integrated peak area as compared to triclosan standards.\nA typical TEM-1 β-lactamase assay is conducted at 37° C. in 1.4 ml of 100 mM potassium phosphate pH 7.2, 1 mM; ethylenediamine tetraacetic acid (EDTA) and 25 nM TEM-1 β-lactamase. A test compound is assayed at several concentrations, for example at 5 and 20 μM. […] Substrates and products are separated and quantitated via HPLC (described below). […]\nKinetic parameters of test compounds (kcat and Km) are determined from a simultaneous progress curve analysis of substrate consumption and product formation (when both are observable) as fit to the equations: […]\nHydrolysis product (triclosan) was separated from Compound (9) by use of an HP1100 series HPLC equipped with an Alltech Adsorbosphere HS(C18)5μ150 mm×4.6 mm column. […] Quantitation of triclosan was based on the A260 integrated peak area as compared to triclosan standards."}, "[11]": {"test_system": "E. coli/TEM-1", "experiment": "Detection of triclosan released from Compound (9) in bacteria", "assay_type": "cell-based, Escherichia coli", "settings": "E. coli/TEM-1, after five minutes, 100 μM Compound (9)", "description": "E coli N and β-lactamase expressing E. coli/TEM-1 were treated with Compound (9) under the condition described in Example 15. Aliquots of culture were sampled at 0, 5 and 15 minutes. The amount of Compound (9) and triclosan were analyzed by HPLC.\nOvernight cultures of both wild-type Escherichia coli N and β-lactamase producing strain Escherichia coli/TEM-1 were diluted 100 times with fresh LB medium and cells were grown for 4 hours at 37° C. (shaking at 230 rpm). Cells were then diluted with fresh LB medium containing 100 μM Compound (9) until the OD600 reached 0.2. Aliquots of the culture were sampled at different timed intervals and the cells were pelleted by centrifugation at 10,000×g for 2 minutes at 4° C. The supernatant was removed and combined with 500 μl acetonitrile. The pelleted bacterial cells were resuspended in 100 μl 133 Phosphate Buffer (GIBCO-BRL, pH8.0) and subjected to 3 cycles of freeze-thawing, followed by addition of 500 μl acetonitrile. Both pellet extracts and supernatant were centrifuged at 10,000×g for 2 minutes at 4° C. 550 μl of the resultant supernatant was transferred into a new Eppendorf tube and vacuum-dried. Dried pellets were resuspended in 50 μl H2O and 100 μl acetonitrile, 75 μl of which was analyzed by HPLC."}, "[12]": {"test_system": "S. aureus (ATCC#700260)", "experiment": "Bactericidal assay", "assay_type": "cell-based", "settings": "0.6 μg/ml", "description": "Compound (9) was added in log-phase S. aureus (ATCC#700260) and incubated at 37° C. The final concentration of cells at hour 0 was 1.3×10^6 cells/ml, and Compound (9) was 0.6 μg/mL. […]\nOvernight broth cultures of S. aureus (ATCC#700260) were diluted 100 times into liquid medium and allowed to grow to exponential phase (OD600=0.6). Next the bacteria were diluted into fresh medium to give a working concentration of 10^6 cells/ml. Compound (9) was added to a final concentration of 0.6 μg/ml, and the suspension was incubated at 37° C. […] The samples were diluted at 10^−3×, 10^−4× or 10^−5× fold, and plated onto agar plates. The plates were incubated for 24 hours at 37° C. to obtain a viable cell count."}, "[13]": {"test_system": "UDP-glucuronosyltransferase", "experiment": "Glucuronidation assay", "assay_type": "in vitro ADME, human", "description": "Assays were conducted as outlined in Example 15, using 100 μM Compound (9), triclosan or cephalothin incubated with 100 μg human liver microsome at 37° C. for 1 hour. The reactants were analyzed on TLC plate, and glucuronidated compounds were visualized by MolecularDynamics Storm 820.\nGlucuronidation assay was performed based on modified procedure from Bansal and Gessner (1980) Anal. Biochem. 109:321-329. Reactions were performed in 50 mM Tris buffer, pH 7.6, containing 10 mM MgCl2, ImM UDPGA, 0.04 μCi of ^14C-UDPGA, 0.1 mM substrate, and 100 μg human liver microsome. The final volume was 100 μL. Reactions were incubated at 37° C. for one hour and the reactants extracted with 200 μL of 100% ethanol. The protein was removed by centrifugation at 12,000×g for 5 minutes in an Eppendorf centrifuige. The supernatant was dried and resuspended in 30 μL of 100% methanol and spotted on a Whatman glass-backed linear k TLC plate. Chromatography was performed in a mixture of 1-butanol/acetone/acetic acid/water (35:35:10:20). The TLC plate was then dried and exposed to phosphor imager overnight, then monitored by imaging (MolecularDynamics Storm 820)."}, "[14]": {"test_system": "S. aureus clinical isolates", "experiment": "MIC by agar dilution, recent clinical isolates (UCSD Medical Center)", "assay_type": "cell-based, Staphylococcus aureus", "settings": "MRSA (17)"}, "[15]": {"settings": "E. aerogenes, E. cloacae and K. pneumoniae"}}, "data": [{"smiles": "O=C(Cc1cccs1)N[C@@H]1C(=O)N2C(C(=O)O)=C(COc3cc(Cl)ccc3Oc3ccc(Cl)cc3Cl)CS[C@H]12", "note": "[Compound 9, 3-(2-(2,4-Dichlorophenoxy)-5-chlorophenoxy)methyl-7-(2-thienylacetamido)-3-cephem-4-carboxylic acid]", "values": [{"measurement": "MIC range", "setting": "[1]", "result": 1000, "unit": "ng/mL"}, {"measurement": "MIC", "setting": "[1]; Enterobacter cloacae, read-out: GM* MIC (geometric mean)", "result": 1000, "unit": "ng/mL"}, {"measurement": "MIC range", "setting": "[2]", "result": "500 to 8000", "unit": "ng/mL"}, {"measurement": "MIC", "setting": "[2]; Klebsiella aerogenes, read-out: GM* MIC (geometric mean)", "result": 3360, "unit": "ng/mL"}, {"measurement": "activity against P. aeruginosa", "setting": "[3]", "result": "no activity"}, {"measurement": "MIC range", "setting": "[3]; P. aeruginosa (7)", "result": ">15600", "unit": "ng/mL"}, {"measurement": "MIC", "setting": "[3]; Pseudomonas aeruginosa, P. aeruginosa (7), read-out: GM* MIC (geometric mean)", "result": "> 15600", "unit": "ng/mL"}, {"measurement": "MIC", "setting": "[4]", "result": "> 7000", "unit": "ng/mL"}, {"measurement": "MIC", "setting": "[5]; Enterococcus, read-out: GM* MIC (geometric mean)", "result": 10300, "unit": "ng/mL"}, {"measurement": "MIC range", "setting": "[5]", "result": "8000 to 16000", "unit": "ng/mL"}, {"measurement": "MIC range", "setting": "[6]", "result": "0.015 to 31", "unit": "ng/mL"}, {"measurement": "MIC", "setting": "[6]; Moraxella catarrhalis, read-out: GM* MIC (geometric mean)", "result": 0.18, "unit": "ng/mL"}, {"measurement": "MIC range", "setting": "[7]", "result": "7.5 to 61", "unit": "ng/mL"}, {"measurement": "MIC", "setting": "[7]; Haemophilus influenzae, read-out: GM* MIC (geometric mean)", "result": 15, "unit": "ng/mL"}, {"measurement": "fold less active than imipenem", "setting": "[8]; [15]", "result": 4, "unit": "fold"}, {"measurement": "fold more active than cephalothin or ampicillin", "setting": "[8]; [15]", "result": "at least 33 fold"}, {"measurement": "fold stronger than ampicillin and cephalothin", "setting": "[8]; M. catarrhalis and H. influenzae, geometric mean MIC", "result": "at least 1000 fold"}, {"measurement": "MIC range", "setting": "[9]", "result": "≤ 0.08", "unit": "µg/mL"}, {"measurement": "MIC range", "setting": "[9]; listed as Comp. (9)", "result": "0.08-0.08 μg/ml"}, {"measurement": "MIC50", "setting": "[9]; Staphylococcus aureus", "result": 80, "unit": "ng/mL"}, {"measurement": "MIC90", "setting": "[9]; Staphylococcus aureus", "result": 80, "unit": "ng/mL"}, {"measurement": "converted to triclosan", "setting": "[10]", "result": "~90", "unit": "%"}, {"measurement": "Compound (9) hydrolyzed producing an equimolar amount of triclosan", "setting": "[11]", "result": "approximately 80%"}, {"measurement": "decrease of the number of viable cells", "setting": "[12]; 6 hours incubation", "result": 100, "unit": "fold"}, {"measurement": "decrease of the number of viable cells compared with time 0", "setting": "[12]; 24 hour incubation", "result": "10,000 fold"}, {"measurement": "glucuronidation by human liver microsome", "setting": "[13]", "result": "not a substrate of UDP-glucuronosyltransferase"}, {"measurement": "MIC range", "setting": "[14]", "result": "80 to 600", "unit": "ng/mL"}, {"measurement": "MIC50", "setting": "[14]; Staphylococcus aureus", "result": 80, "unit": "ng/mL"}, {"measurement": "MIC90", "setting": "[14]; Staphylococcus aureus", "result": 300, "unit": "ng/mL"}]}]}
